# What was measured:
# [1] = molecular target: T1, recombinant human CYP11B2 (Homo sapiens, UniProt P19099); experiment: CYP11B2 enzyme assay, enzyme enriched microsomes from V79-4 cells, aldosterone by LC-MS; assay type: biochemical; conditions: IC50 ranges; run at Km of 11-deoxycorticosterone; read-out: hCYP11B2 IC50
# T1 construct: made in house; host or cells: V79-4 cells (enzyme enriched microsomal fraction of cell lysates)
# T1 sequence (P19099 25-503): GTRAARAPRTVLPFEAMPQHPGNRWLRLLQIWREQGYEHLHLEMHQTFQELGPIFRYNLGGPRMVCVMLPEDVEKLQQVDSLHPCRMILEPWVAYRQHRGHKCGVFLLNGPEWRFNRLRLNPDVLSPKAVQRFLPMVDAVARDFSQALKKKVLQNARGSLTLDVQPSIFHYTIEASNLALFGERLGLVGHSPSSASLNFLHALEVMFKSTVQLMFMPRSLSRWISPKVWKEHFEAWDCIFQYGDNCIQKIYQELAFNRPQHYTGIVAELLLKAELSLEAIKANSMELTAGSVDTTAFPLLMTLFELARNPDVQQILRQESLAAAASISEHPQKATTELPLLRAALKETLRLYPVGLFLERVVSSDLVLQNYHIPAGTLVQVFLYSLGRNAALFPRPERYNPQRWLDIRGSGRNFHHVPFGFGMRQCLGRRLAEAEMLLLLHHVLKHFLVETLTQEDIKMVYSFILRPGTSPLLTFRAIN
# Method: (§1) An enzyme enriched microsomal fraction was prepared from cellular lysates and subsequently used as the enzyme source for determining inhibitor IC50s. […] Enzyme assays for inhibitor screening employed CYP11B2 and CYP11B1 enzyme enriched microsomes and were run at the Km of the respective substrates. Products of the enzyme reactions, aldosterone for CYP11B2 or cortisol for CYP11B1, were measured by LC-MS. Assays were run under conditions of less than 20% substrate turnover. Inhibitor IC50s were generated by determining the product formation in the absence or presence of inhibitor at various concentrations. In the absence of the test compound, the product formed (Pt) in each data set was defined as 100% activity. In the absence of enzyme, the product formed (Pb) in each data set was defined as 0% activity. The percent activity in the presence of each inhibitor was calculated according to the following equation: % activity=(P−Pb)/(Pt−Pb), where P=the product formed in the presence of the inhibitor.
# [2] = molecular target: T2, recombinant human CYP11B1 (Homo sapiens, UniProt P15538); experiment: CYP11B1 enzyme assay, enzyme enriched microsomes from V79-4 cells, cortisol by LC-MS; assay type: biochemical; conditions: IC50 ranges; run at Km of 11-deoxycortisol; read-out: hCYP11B1 IC50
# T2 construct: made in house; host or cells: V79-4 cells (enzyme enriched microsomal fraction of cell lysates)
# T2 sequence (P15538 25-503): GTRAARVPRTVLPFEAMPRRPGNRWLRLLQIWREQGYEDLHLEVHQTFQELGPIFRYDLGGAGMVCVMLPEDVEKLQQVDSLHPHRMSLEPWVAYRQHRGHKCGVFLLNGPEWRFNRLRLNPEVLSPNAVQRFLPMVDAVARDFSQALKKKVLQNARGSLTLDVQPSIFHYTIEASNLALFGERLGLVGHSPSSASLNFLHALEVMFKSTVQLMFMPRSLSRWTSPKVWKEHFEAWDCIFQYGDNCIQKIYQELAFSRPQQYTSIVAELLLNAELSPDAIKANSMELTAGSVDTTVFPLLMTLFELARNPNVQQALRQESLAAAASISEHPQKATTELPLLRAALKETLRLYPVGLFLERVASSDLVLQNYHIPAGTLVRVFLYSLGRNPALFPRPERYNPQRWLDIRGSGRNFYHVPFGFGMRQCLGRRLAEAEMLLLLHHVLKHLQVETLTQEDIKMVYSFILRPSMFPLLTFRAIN
# Method: as §1
IC50 [1],IC50 [2],Compound
1 to 100 nM,1000 to 10000 nM,"CC(C)c1ncncc1-c1nc2ccc(Cl)cc2n1C1CC1 [Example 24, 6-Chloro-1-cyclopropyl-2-(4-isopropylpyrimidin-5-yl)-1H-benzo[d]imidazole]"
1 to 100 nM,1000 to 10000 nM,"CCc1ncncc1-c1nc2ccc(F)c(F)c2n1C1CC1 [Example 17, 1-Cyclopropyl-2-(4-ethylpyrimidin-5-yl)-6,7-difluoro-1H-benzo[d]imidazole]"
1 to 100 nM,1000 to 10000 nM,"N#Cc1ccc2nc(-c3cncnc3C(F)(F)F)n(C3CC3)c2n1 [Example 65, 3-Cyclopropyl-2-(4-(trifluoromethyl)pyrimidin-5-yl)-3H-imidazo[4,5-b]pyridine-5-carbonitrile]"
1 to 100 nM,100 to 1000 nM,"CCn1c(-c2cncnc2)cc2ccc(Cl)cc21 [Example 47, 6-Chloro-1-ethyl-2-(pyrimidin-5-yl)-1H-indole]"
100 to 1000 nM,1000 to 10000 nM,"FC(F)(F)Oc1ccc2nc(-c3cncnc3)n(C3CC3)c2c1 [Example 42, 1-Cyclopropyl-2-(pyrimidin-5-yl)-6-(trifluoromethoxy)-1H-benzo[d]imidazole]"
100 to 1000 nM,> 10000 nM,"CCn1c(-c2cncnc2C(F)(F)F)nc2cc(F)c(F)cc21 [Example 67, 1-Ethyl-5,6-difluoro-2-(4-(trifluoromethyl)pyrimidin-5-yl)-1H-benzo[d]imidazole]"
100 to 1000 nM,1000 to 10000 nM,"Fc1ccc2nc(-c3cncnc3)n(C3CC3)c2c1F [Example 2, 1-Cyclopropyl-6,7-difluoro-2-(pyrimidin-5-yl)-1H-benzo[d]imidazole]"
100 to 1000 nM,> 10000 nM,"Cc1ncncc1-c1nc2cnc(C#N)cc2n1C1CC1 [Example 56, 1-Cyclopropyl-2-(4-methylpyrimidin-5-yl)-1H-imidazo[4,5-c]pyridine-6-carbonitrile]"
1 to 100 nM,1000 to 10000 nM,"CCn1c(-c2cncnc2C(F)(F)F)nc2ccc(C#N)cc21 [Example 53, 2-(4-(trifluoromethyl)pyrimidin-5-yl)-1-ethyl-1H-benzo[d]imidazole-6-carbonitrile]"
1 to 100 nM,1000 to 10000 nM,"COCCNc1ncncc1-c1nc2cc(F)c(F)cc2n1C1CC1 [Example 33, 5-(1-Cyclopropyl-5,6-difluoro-1H-benzo[d]imidazol-2-yl)-N-(2-methoxyethyl)pyrimidin-4-amine]"
1000 to 10000 nM,> 10000 nM,"Fc1ccc2nc(-c3cnc(Cl)nc3Cl)n(C3CC3)c2c1 [Example 35, 1-Cyclopropyl-2-(2,4-dichloropyrimidin-5-yl)-6-fluoro-1H-benzo[d]imidazole]"
1 to 100 nM,1000 to 10000 nM,"CCCc1ncncc1-c1nc2ccc(F)cc2n1C1CC1 [Example 14, 1-Cyclopropyl-6-fluoro-2-(4-propylpyrimidin-5-yl)-1H-benzo[d]imidazole]"
100 to 1000 nM,> 10000 nM,"CCn1c(-c2cncnc2C(F)(F)F)nc2ccc(C#N)nc21 [Example 69, 3-ethyl-2-(4-(trifluoromethyl)pyrimidin-5-yl)-3H-imidazo[4,5-b]pyridine-5-carbonitrile]"
1000 to 10000 nM,> 10000 nM,"FC(F)(F)c1ncncc1-c1nc2cc(Cl)cnc2n1C1CC1 [Example 66, 6-Chloro-3-cyclopropyl-2-(4-(trifluoromethyl)pyrimidin-5-yl)-3H-imidazo[4,5-b]pyridine]"
1 to 100 nM,100 to 1000 nM,"CNc1ncncc1-c1nc2ccc(C#N)cc2n1C1CC1 [Example 39, 1-Cyclopropyl-2-(4-(methylamino)pyrimidin-5-yl)-1H-benzo[d]imidazole-6-carbonitrile]"
1 to 100 nM,1000 to 10000 nM,"N#Cc1ccc2nc(-c3cncnc3C(F)F)n(C3CC3)c2c1 [Example 54, 1-Cyclopropyl-2-(4-(difluoromethyl)pyrimidin-5-yl)-1H-benzo[d]imidazole-6-carbonitrile]"
1000 to 10000 nM,> 10000 nM,"c1ncc(-c2nc3c(n2C2CC2)CCCC3)cn1 [Example 57, 1-Cyclopropyl-2-(pyrimidin-5-yl)-4,5,67-tetrahydro-1H-benzo[d]imidazole]"
100 to 1000 nM,> 10000 nM,"CCn1c(-c2cncnc2C(F)(F)F)nc2ccc(Cl)nc21 [Example 68, 5-Chloro-3-ethyl-2-(4-(trifluoromethyl)pyrimidin-5-yl)-3H-imidazo[4,5-b]pyridine]"

IC50 [1],IC50 [2],Compound
1 to 100 nM,1000 to 10000 nM,"Fc1cc2nc(-c3cncnc3)n(C3CC3)c2cc1F [Example 7, 1-Cyclopropyl-5,6-difluoro-2-(pyrimidin-5-yl)-1H-benzo[d]imidazole]"
1 to 100 nM,100 to 1000 nM,"CNc1ncncc1-c1nc2ccc(F)cc2n1C1CC1 [Example 12, 5-(1-Cyclopropyl-6-fluoro-1H-benzo[d]imidazol-2-yl)-N-methylpyrimidin-4-amine]"
1 to 100 nM,100 to 1000 nM,"CC(C)(C)Nc1ncncc1-c1nc2cc(F)c(F)cc2n1C1CC1 [Example 34, N-(tert-Butyl)-5-(1-cyclopropyl-5,6-difluoro-1H-benz[d]imidazol-2-yl)pyrimidin-4-amine]"
1 to 100 nM,1000 to 10000 nM,"N#Cc1ncncc1-c1nc2ccc(F)cc2n1C1CC1 [Example 10, 5-(1-Cyclopropyl-6-fluoro-1H-benzo[d]imidazol-2-yl)pyrimidine-4-carbonitrile]"
1 to 100 nM,1000 to 10000 nM,"CCc1ncncc1-c1nc2ccc(F)cc2n1C1CC1 [Example 5, 1-Cyclopropyl-2-(4-ethylpyrimidin-5-yl)-6-fluoro-1H-benzo[d]imidazole]"
1 to 100 nM,1000 to 10000 nM,"CC(F)(F)c1ncncc1-c1nc2ccc(C#N)cc2n1C1CC1 [Example 64, 1-Cyclopropyl-2-(4-(1,1-difluoroethyl)pyrimidin-5-yl)-1H-benzo[d]imidazole-6-carbonitrile]"
1 to 100 nM,1000 to 10000 nM,"N#Cc1ncncc1-c1nc2cc(F)c(F)cc2n1C1CC1 [Example 46, 5-(1-Cyclopropyl-5,6-difluoro-1H-benzo[d]imidazol-2-yl) pyrimidine-4-carbonitrile]"
1000 to 10000 nM,> 10000 nM,"CC(=O)NCCc1ncncc1-c1nc2cc(F)c(F)cc2n1C1CC1 [Example 59, N-(2-(5-(1-Cyclopropyl-5,6-difluoro-1H-benzo[d]imidazol-2-yl)pyrimidin-4-yl)ethyl)acetamide]"
1 to 100 nM,1000 to 10000 nM,"CCn1c(-c2cncnc2C)nc2ccc(C#N)cc21 [Example 18, 1-Ethyl-2-(4-methylpyrimidin-5-yl)-1H-benzo[d]imidazole-6-carbonitrile]"
> 10000 nM,> 10000 nM,"O=C(O)c1ccc2nc(-c3cncnc3C(F)(F)F)n(C3CC3)c2c1 [Example 70, 1-Cyclopropyl-2-(4-(trifluoromethyl)pyrimidin-5-yl)-1H-benzo[d]imidazole-6-carboxylic acid]"
100 to 1000 nM,1000 to 10000 nM,"CCc1ncncc1-c1nc2ccc(F)cc2n1CC [Example 16, 1-Ethyl-2-(4-ethylpyrimidin-5-yl)-6-fluoro-1H-benzo[d]imidazole]"
1000 to 10000 nM,> 10000 nM,"CC(=O)NCc1ncncc1-c1nc2ccc(F)cc2n1C1CC1 [Example 19, N-((5-(1-Cyclopropyl-6-fluoro-1H-benzo[d]imidazol-2-yl)pyrimidin-4-yl)methyl)acetamide]"
1 to 100 nM,1000 to 10000 nM,"CN(C)c1ncncc1-c1nc2cc(F)c(F)cc2n1C1CC1 [Example 32, 5-(1-Cyclopropyl-5,6-difluoro-1H-benzo[d]imidazol-2-yl)-N,N-dimethylpyrimidin-4-amine]"
1 to 100 nM,1000 to 10000 nM,"CCc1ncncc1-c1nc2ccc(C#N)cc2n1C1CC1 [Example 8, 1-Cyclopropyl-2-(4-ethylpyrimidin-5-yl)-1H-benzo[d]imidazole-6-carbonitrile]"
1 to 100 nM,1000 to 10000 nM,"CC(C)c1ncncc1-c1nc2ccc(F)cc2n1C1CC1 [Example 13, 1-Cyclopropyl-6-fluoro-2-(4-isopropylpyrimidin-5-yl)-1H-benzo[d]imidazole]"
1 to 100 nM,1000 to 10000 nM,"CCc1ncncc1-c1nc2ccc(Cl)cc2n1C1CC1 [Example 11, 6-Chloro-1-cyclopropyl-2-(4-ethylpyrimidin-5-yl)-1H-benzo[d]imidazole]"
1000 to 10000 nM,> 10000 nM,"CS(=O)(=O)c1ccc2nc(-c3cncnc3)n(C3CC3)c2c1 [Example 26, 1-Cyclopropyl-6-(methylsulfonyl)-2-(pyrimidin-5-yl)-1H-benzo[d]imidazole]"
